Source: PMC5719405, “Sex-related pharmacokinetic differences and mechanisms of metapristone (RU486 metabolite)” (Scientific Reports, 2017)
Where two headings read alike, the source gives them in different places.

Tests used:
[1] = Single oral dose pharmacokinetics of metapristone in beagle dogs, non-compartmental analysis; type: in vivo; conditions: for AUC(0-inf) / AUC(0-t) / CL/F / Cmax / Tmax / Vd/F / half-life / MRT last: beagle, dog, plasma, po; for MRT last: read-out: MRT (0-t)
Method: For pharmacokinetic study, rats were fasted overnight with free access to water using procedures reported previously. Ninety-six SD rats (forty-eight males and forty-eight females) were randomly divided into […] single-dose groups. Rats (six animals/sex/dose) were given a single oral dose of 22.5, 45 and 90 mg/kg metapristone (in soybean oil solution) by intragastric administration or 10 mg/kg metapristone by intravenous bolus injection. Rat blood samples (0.25 mL) were collected from the ocular vein into heparinized tubes prior to and at 0 (before administration), 0.5, 1.0, 1.5, 2.0, 4.0, 6.0, 8.0, 12, 24, 36 and 48 h post-dosing in female rats or 0.5, 1.0, 1.5, 2.0, 4.0, 6.0, 8.0, 12, 24, 30 and 36 h post-dosing in male rats. In the repeated dose study twenty-four rats (six animals/sex/dose) received the same dosing regimen at 45 mg/kg metapristone for 10 days. Blood samples were collected after oral administration on day 1 and 10 at T max. The samples were stored at −80 °C until analysis. Beagle dogs (three animals/sex/dose) were dosed by gavage at 5.62, 11.25, 22.5 mg/kg metapristone (in soybean oil solution). Dog blood (0.25 mL) was withdrawn from the jugular vein at 0.5, 1.0, 2.0, 4.0, 6.0, 8.0, 10, 12, 24 and 48 h after a single oral administration.
The plasma samples obtained by centrifugation at 4000 g for 10 min and stored at −80 °Cuntil analysis. To each 100 µL of plasma sample, 50 µL of internal standard solution were added. Metapristone was then separated and analyzed by the LC/MS/MS method according to the previously described procedures. Peak area ratios of metapristone to the internal standard were plotted against theoretical concentrations. The maximum plasma concentration (C max), the time to reach C max (T max) were determined directly from experimental data. The other pharmacokinetic parameters such as elimination half-life (t 1/2), and mean residence time (MRT) were calculated by using the non-compartmental pharmacokinetics data analysis software of DAS version 3.2 (Bio Guider Co., Shanghai, China). The area under the plasma concentration-time curve from zero to infinity was calculated by using the linear trapezoidal rule with extrapolation to infinity with terminal constant eliminate rate (k e). Bioavailability was calculated as (AUCp.o./AUCi.v.) x (dosei.v./ dosep.o.) 100% as we previously described.

[2] = Tissue distribution study with metapristone; type: in vivo, SD rats; conditions: female rats, 45 mg/kg single oral dose
Method: Sixteen SD rats (four females/group) were dosed by gavage with 45 mg/kg of metapristone to carry out tissue distribution study, as we previously described. Rats were sacrificed at 6 h and 24 h after dosing in order to collect blood, heart, liver, spleen, lung, kidney, brain, intestine and ovary for quantitative analysis of metapristone concentrations. Tissue samples were immediately washed in normal saline to remove the blood or content, and blotted dry with filter paper. Tissue samples (0.2 g) were individually homogenized with normal saline (0.8 mL). Tissue homogenates (100 µL) were processed as the plasma samples. The detailed method validation for analysis of metapristone in plasma, tissue homogenates, and liver microsomal samples is provided in the Supplementary materials.

[3] = test system: HT-29 cells; conditions: cited from earlier work
[4] = 5.62, 11.25 and 22.5 mg/kg p.o.

CC#C[C@]1(O)CC[C@H]2[C@@H]3CCC4=CC(=O)CCC4=C3[C@@H](c3ccc(NC)cc3)C[C@@]21C [metapristone, N-monodemethyl mifepristone]
C max and AUC in female dogs relative to male dogs (greater) [1, 4]: 1–2.4 fold
CL/F in female dogs relative to male dogs (lower) [1, 4]: 1.5–3.6 fold
V d /F in female dogs relative to male dogs (lower) [1, 4]: 1.3–2.38 fold
AUC(0-inf) ([1]; female dogs, p.o. 5.6 mg/kg): 580 ± 120 ng·h/mL
AUC(0-t) ([1]; female dogs, p.o. 5.6 mg/kg): 560 ± 110 ng·h/mL
CL/F ([1]; female dogs, p.o. 5.6 mg/kg): 165 mL/min/kg
Cmax ([1]; female dogs, p.o. 5.6 mg/kg): 70 ± 10 ng/mL
Tmax ([1]; female dogs, p.o. 5.6 mg/kg): 1.67 ± 0.57 h
Vd/F ([1]; female dogs, p.o. 5.6 mg/kg): 126 ± 7.1 L/kg
half-life ([1]; female dogs, p.o. 5.6 mg/kg): 8.05 ± 1.12 h
MRT last ([1]; female dogs, p.o. 5.6 mg/kg): 7.23 ± 1.69 h
AUC(0-inf) ([1]; female dogs, p.o. 11.25 mg/kg): 1330 ± 110 ng·h/mL
AUC(0-t) ([1]; female dogs, p.o. 11.25 mg/kg): 1280 ± 100 ng·h/mL
CL/F ([1]; female dogs, p.o. 11.25 mg/kg): 141 mL/min/kg
Cmax ([1]; female dogs, p.o. 11.25 mg/kg): 190 ± 30 ng/mL
Tmax ([1]; female dogs, p.o. 11.25 mg/kg): 1.67 ± 0.57 h
Vd/F ([1]; female dogs, p.o. 11.25 mg/kg): 105 ± 9.17 L/kg
half-life ([1]; female dogs, p.o. 11.25 mg/kg): 8.57 ± 1.12 h
MRT last ([1]; female dogs, p.o. 11.25 mg/kg): 8.62 ± 0.56 h
AUC(0-inf) ([1]; female dogs, p.o. 22.5 mg/kg): 2560 ± 210 ng·h/mL
AUC(0-t) ([1]; female dogs, p.o. 22.5 mg/kg): 2400 ± 150 ng·h/mL
CL/F ([1]; female dogs, p.o. 22.5 mg/kg): 147 mL/min/kg
Cmax ([1]; female dogs, p.o. 22.5 mg/kg): 380 ± 10 ng/mL
Tmax ([1]; female dogs, p.o. 22.5 mg/kg): 1.66 ± 0.57 h
Vd/F ([1]; female dogs, p.o. 22.5 mg/kg): 89.2 ± 14.1 L/kg
half-life ([1]; female dogs, p.o. 22.5 mg/kg): 7.19 ± 2.83 h
MRT last ([1]; female dogs, p.o. 22.5 mg/kg): 7 ± 0.61 h
AUC(0-inf) ([1]; male dogs, p.o. 5.6 mg/kg): 230 ± 50 ng·h/mL
AUC(0-t) ([1]; male dogs, p.o. 5.6 mg/kg): 210 ± 30 ng·h/mL
CL/F ([1]; male dogs, p.o. 5.6 mg/kg): 266 mL/min/kg
Cmax ([1]; male dogs, p.o. 5.6 mg/kg): 50 ng/mL
Tmax ([1]; male dogs, p.o. 5.6 mg/kg): 2 h
Vd/F ([1]; male dogs, p.o. 5.6 mg/kg): 187 ± 8.21 L/kg
half-life ([1]; male dogs, p.o. 5.6 mg/kg): 8.18 ± 2.9 h
MRT last ([1]; male dogs, p.o. 5.6 mg/kg): 7.16 ± 1.12 h
AUC(0-inf) ([1]; male dogs, p.o. 11.25 mg/kg): 770 ± 110 ng·h/mL
AUC(0-t) ([1]; male dogs, p.o. 11.25 mg/kg): 750 ± 100 ng·h/mL
CL/F ([1]; male dogs, p.o. 11.25 mg/kg): 241 mL/min/kg
Cmax ([1]; male dogs, p.o. 11.25 mg/kg): 150 ± 30 ng/mL
Tmax ([1]; male dogs, p.o. 11.25 mg/kg): 2 h
Vd/F ([1]; male dogs, p.o. 11.25 mg/kg): 136 ± 13.1 L/kg
half-life ([1]; male dogs, p.o. 11.25 mg/kg): 5.54 ± 2.3 h
MRT last ([1]; male dogs, p.o. 11.25 mg/kg): 5.68 ± 1.1 h
AUC(0-inf) ([1]; male dogs, p.o. 22.5 mg/kg): 1600 ± 340 ng·h/mL
AUC(0-t) ([1]; male dogs, p.o. 22.5 mg/kg): 1560 ± 310 ng·h/mL
CL/F ([1]; male dogs, p.o. 22.5 mg/kg): 210 mL/min/kg
Cmax ([1]; male dogs, p.o. 22.5 mg/kg): 300 ± 20 ng/mL
Tmax ([1]; male dogs, p.o. 22.5 mg/kg): 2 h
Vd/F ([1]; male dogs, p.o. 22.5 mg/kg): 123 ± 15 L/kg
half-life ([1]; male dogs, p.o. 22.5 mg/kg): 6.79 ± 2.81 h
MRT last ([1]; male dogs, p.o. 22.5 mg/kg): 6.18 ± 0.34 h
increase of Cmax for female dogs versus male dogs ([1]; p.o. 5.6 mg/kg): 40%
concentration at 6 h ([2]; Sprague-Dawley, rat, liver, 6 h): 222000 ± 23000 ng/g
metapristone in rat brain [2]: detected
adhesion of HT-29 cells to endothelial cells [3]: interrupted adhesion
